From patent US7495027B2, “3-aryl-4-hydroxyfuranone compounds and the human and animal health use thereof” (Wyeth, priority 2003, dated 2009) come the findings set out here.

The experiment concerns C. elegans. Description: Efficacy against nematodes (C. elegans motility rating). Also on record: key: 0: no effect; 7: reduced movement in 24 h; 8: dead in 24 h; 9: dead in 4 h. Conditions: observations at 4 h and 24 h postimmersion. As for the experimental part: Evaluation of the Efficacy of a 3-Aryl-4-Hydroxyfuranone Against Nematodes
In this evaluation, cultures of C. elegans are maintained on E. coli lawns on Nematode Growth Agar at 20° C. New cultures are established twice a week. Nematodes for testing are rinsed from plates using M9 Buffer. […] One μL of this solution is added to each well of a 96 well plate. A mixture of C. elegans in M9 Buffer (100 μL) is added to each well, such that approximately 50 worms of mixed stages (L1, L2, L3, L4 and adults) are present in each well at a final concentration of 100 ppm, 150 ppm or […] of test compound. Concentration of test compound may be varied by gradient dilution of the stock DMSO solution. Observations are made under a dissecting microscope at 4 h and 24 h postimmersion. A rating is based on the motility of the larvae and adults, using the rating system shown below.

For the setting “dose 150 ppm”, `O=C1O/C(=C\c2ccc(-c3ccccc3CO)cc2)C(O)=C1c1ccccc1CO` gave a Rating of 0.

For the setting “dose 200 μM”, `Cc1cccc(C2=C(O)C(=Cc3cc(C(F)(F)F)ccc3Cl)OC2=O)c1C` returned a Rating of 0. Still for that read-out and setting: in the case of `Cc1ccc(C)c(C2=C(O)/C(=C/c3cc(C(F)(F)F)ccc3Cl)OC2=O)c1` it was 0. For `COc1ccccc1-c1ccc(C=C2OC(=O)C(c3cc(Cl)cc(Cl)c3)=C2O)cc1C`, the Rating (dose 150 ppm) amounted to 0. The same measure, in the same setting: in the case of `COc1cc(/C=C2\OC(=O)C(c3cc(Cl)cc(Cl)c3)=C2O)ccc1-c1ccccc1C` it was 9.

For `O=C1O/C(=C\c2ccc(-c3cccc(C(F)(F)F)c3)cc2)C(O)=C1c1cccc(C(F)(F)F)c1`, the Rating (dose 150 ppm) is listed as 8. In turn, `O=C1OC(=Cc2ccc(-c3cccc(CO)c3)cc2)C(O)=C1c1cccc(CO)c1` returned a Rating (dose 150 ppm) of 0. Same read-out and setting: in the case of `COc1ccc(/C=C2\OC(=O)C(c3cccc(Cl)c3)=C2O)c2ccccc12` it was 9. Still for that read-out and setting: to `O=C1O/C(=C\c2ccc(N3CCOCC3)c3ccccc23)C(O)=C1c1cccc(Cl)c1` belongs 0.

Consider `CCOC(=O)N1CCN(c2ccc(/C=C3\OC(=O)C(c4cccc(Cl)c4)=C3O)cc2F)CC1`, for which the Rating (dose 150 ppm) turned out to be 7. Under “dose 150 ppm”, `Cc1cc(/C=C2\OC(=O)C(c3cccc(Cl)c3)=C2O)ccc1-c1ccccc1C(F)(F)F` came in with a Rating of 9. Still for that read-out and setting: in the case of `Cc1cc(/C=C2\OC(=O)C(c3cccc(Cl)c3)=C2O)ccc1-c1ccccc1Cl` it was 9; in that of `COc1ccccc1-c1ccc(C=C2OC(=O)C(c3cccc(Cl)c3)=C2O)cc1C`, 7.

Where the note is “dose 150 ppm”, `COc1cc(/C=C2\OC(=O)C(c3cccc(Cl)c3)=C2O)ccc1-c1ccccc1C(F)(F)F` displayed a Rating of 9.

`COc1cc(/C=C2\OC(=O)C(c3cccc(Cl)c3)=C2O)ccc1-c1ccccc1Cl`: the Rating (dose 150 ppm) amounted to 8.

For the compound `O=C1O/C(=C\c2cc(C(F)(F)F)ccc2Cl)C(O)=C1c1ccc(N2CCOCC2)c(F)c1`, where the note is “dose 150 ppm”, the Rating was found to be 0. Compound `CC(=O)Nc1cccc(C2=C(O)C(=Cc3ccc(-c4cccc(NC(C)=O)c4)cc3)OC2=O)c1` displayed a Rating (dose 150 ppm) of 0. `CC(C)c1cccc(C2=C(O)/C(=C/c3cc(C(F)(F)F)ccc3Cl)OC2=O)c1`: the Rating (dose 200 μM) was determined as 0. Still for that read-out and setting: in the case of `Cc1ccc(C2=C(O)C(=Cc3cccc(C(F)(F)F)c3Cl)OC2=O)cc1C` it was 9; in that of `Cc1ccc(C2=C(O)/C(=C/c3cc(C(F)(F)F)ccc3Cl)OC2=O)cc1C`, 0; in that of `Cc1cc(C)cc(C2=C(O)/C(=C/c3cc(C(F)(F)F)ccc3Cl)OC2=O)c1`, 0.

`O=C1OC(=Cc2ccc(-c3cc(C(F)(F)F)cc(C(F)(F)F)c3)cc2)C(O)=C1c1cc(C(F)(F)F)cc(C(F)(F)F)c1`: the Rating (dose 150 ppm) was determined as 0.

As for `CN(C)c1ccc(C=C2OC(=O)C(c3cc(Cl)cc(Cl)c3)=C2O)c2ccccc12`, for the setting “dose 150 ppm”, the Rating is reported as 0.

`COc1ccc(/C=C2\OC(=O)C(c3cc(Cl)cc(Cl)c3)=C2O)c2ccccc12` returned a Rating (dose 150 ppm) of 0. Still for that read-out and setting: to `O=C1O/C(=C\c2ccc(N3CCOCC3)c3ccccc23)C(O)=C1c1cc(Cl)cc(Cl)c1` belongs 0; to `O=C1OC(=Cc2ccccc2OCc2ccccc2)C(O)=C1c1cc(Cl)cc(Cl)c1`, 0. On the same count and under the same terms, in the case of `O=C1O/C(=C\c2ccc(N3CCN(c4ccccc4Cl)CC3)c(Cl)c2)C(O)=C1c1cc(Cl)cc(Cl)c1` it was 0.

In the case of `CCOC(=O)N1CCN(c2ccc(C=C3OC(=O)C(c4cc(Cl)cc(Cl)c4)=C3O)cc2F)CC1`, for the setting “dose 150 ppm”, the Rating came to 0. The same measure, in the same setting: to `CCOC(=O)CNC(=O)CNC(=O)c1cccc(/C=C2\OC(=O)C(c3cc(Cl)cc(Cl)c3)=C2O)c1` belongs 0; to `O=C1OC(=Cc2cccc(OCc3ccccc3)c2)C(O)=C1c1cc(Cl)cc(Cl)c1`, 0; to `Cc1cc(/C=C2\OC(=O)C(c3cc(Cl)cc(Cl)c3)=C2O)ccc1-c1ccccc1Cl`, 7. Still for that read-out and setting: in the case of `COc1cc(/C=C2\OC(=O)C(c3cc(Cl)cc(Cl)c3)=C2O)ccc1-c1ccccc1C(F)(F)F` it was 0; in that of `Cc1ccccc1-c1ccc(C=C2OC(=O)C(c3cc(Cl)cc(Cl)c3)=C2O)cc1C`, 0. On the same count and under the same terms, to `COc1ccccc1-c1ccc(/C=C2\OC(=O)C(c3cc(Cl)cc(Cl)c3)=C2O)cc1OC` belongs 0; to `O=C1O/C(=C\c2ccc(-c3cc(Cl)cc(Cl)c3)cc2)C(O)=C1c1cc(Cl)cc(Cl)c1`, 7; to `CN(C)c1ccc(/C=C2\OC(=O)C(c3ccc(C(F)(F)F)cc3)=C2O)c2ccccc12`, 0.

Turning to `Cc1ccc(C2=C(O)/C(=C/c3ccc(-c4ccc(C)cc4)cc3)OC2=O)cc1`, where the note is “dose 150 ppm”, the Rating stood at 0. The same measure, in the same setting: to `N#Cc1ccc(C2=C(O)C(=Cc3ccc(-c4ccc(Cl)cc4)cc3)OC2=O)cc1` belongs 9; to `CN(C)c1ccc(/C=C2\OC(=O)C(c3ccc(Cl)cc3)=C2O)c2ccccc12`, 0. In the case of `CCOc1ccc(-c2ccc(C3=C(O)/C(=C/c4cc(C(F)(F)F)ccc4F)OC3=O)cc2)cc1`, the Rating (dose 200 μM) is 9.

For `CCCCc1ccc(-c2ccc(C3=C(O)C(=Cc4cccc(C(F)(F)F)c4Cl)OC3=O)cc2)cc1`, under “dose 200 μM”, the Rating was 9. Same read-out and setting: to `CCCCc1ccc(-c2ccc(C3=C(O)/C(=C/c4cc(C(F)(F)F)ccc4F)OC3=O)cc2)cc1` belongs 0; to `CCCCc1ccc(-c2ccc(C3=C(O)C(=Cc4cc(F)cc(C(F)(F)F)c4)OC3=O)cc2)cc1`, 9. For `CCCc1ccc(-c2ccc(C3=C(O)/C(=C/c4cccc(C(F)(F)F)c4Cl)OC3=O)cc2)cc1`, the Rating (dose 200 μM) turned out to be 9. The same measure, in the same setting: to `CCCc1ccc(-c2ccc(C3=C(O)/C(=C/c4cc(C(F)(F)F)ccc4Cl)OC3=O)cc2)cc1` belongs 0; to `CCCc1ccc(-c2ccc(C3=C(O)/C(=C/c4cc(C(F)(F)F)ccc4F)OC3=O)cc2)cc1`, 9; to `CC(C)(C)c1ccc(-c2ccc(C3=C(O)/C(=C/c4cccc(C(F)(F)F)c4)OC3=O)cc2)cc1`, 0. Still for that read-out and setting: to `CCc1ccc(C2=C(O)/C(=C/c3cc(C(F)(F)F)ccc3Cl)OC2=O)cc1` belongs 9; to `CC(C)c1ccc(C2=C(O)/C(=C/c3cccc(C(F)(F)F)c3Cl)OC2=O)cc1`, 9.

For the setting “dose 150 ppm”, `CC(C)(C)c1ccc(-c2ccc(C3=C(O)/C(=C/c4ccc(-c5ccccc5)cc4)OC3=O)cc2)cc1` came in with a Rating of 0. In turn, `O=C1OC(=Cc2ccc(Cl)c(Cl)c2)C(O)=C1c1ccc(Cl)s1` returned a Rating (dose 100 ppm) of 9.

`O=C1O/C(=C\c2ccc(F)c(F)c2)C(O)=C1c1ccc(Cl)s1` displayed a Rating (dose 100 ppm) of 9.

Where the note is “dose 100 ppm”, `O=C1O/C(=C\c2ccc(C(F)(F)F)cc2)C(O)=C1c1ccc(Cl)s1` registered a Rating of 9.

In the case of `N#Cc1ccc(/C=C2\OC(=O)C(c3ccc(Cl)s3)=C2O)cc1`, for the setting “dose 100 ppm”, the Rating was 9. Same read-out and setting: in the case of `O=C1O/C(=C\c2ccc(Cl)cc2)C(O)=C1c1ccc(Cl)s1` it was 9. As to `O=C1O/C(=C\c2ccc(F)c(C(F)(F)F)c2)C(O)=C1c1ccc(Cl)s1`, the Rating (dose 100 ppm) is 9. Consider `O=C1O/C(=C\c2ccc(F)cc2)C(O)=C1c1ccc(Cl)s1`, for which, under “dose 100 ppm”, the Rating is on record as 9. Same read-out and setting: in the case of `O=C1O/C(=C\c2ccc(OC(F)(F)F)cc2)C(O)=C1c1ccc(Cl)s1` it was 9; in that of `O=C1O/C(=C\c2ccc(OC(F)F)cc2)C(O)=C1c1ccc(Cl)s1`, 9; in that of `O=C1O/C(=C\c2ccc(OCC3CC3)cc2)C(O)=C1c1ccc(Cl)s1`, 9. The same measure, in the same setting: to `O=C1OC(=Cc2ccc(Cl)s2)C(O)=C1c1ccc(Cl)s1` belongs 9.

Regarding `O=C1OC(=Cc2ccc(-c3ccc(Cl)cc3)cc2)C(O)=C1c1ccc(C(F)(F)F)cc1` (mixture of isomers), the Rating (dose 100 ppm) is recorded as 9. Same read-out and setting: to `N#Cc1ccc(C2=C(O)C(=Cc3ccc(-c4ccc(C(F)(F)F)cc4)cc3)OC2=O)cc1` (mixture of isomers) belongs 9. The same measure, in the same setting: to `Cc1nc(C=C2OC(=O)C(c3ccc(OC(F)(F)F)cc3)=C2O)c[nH]1` (mixture of isomers) belongs 0; to `O=C1OC(=Cc2ccc3c(c2)OC(F)(F)O3)C(O)=C1c1ccc(OC(F)(F)F)cc1` (mixture of isomers), 9; to `O=C1OC(=Cc2ccncc2Cl)C(O)=C1c1ccc(OC(F)(F)F)cc1` (mixture of isomers), 9.

`O=C1OC(=Cc2ccc(OC(F)(F)C(F)F)cc2)C(O)=C1c1ccc(OC(F)(F)F)cc1` (mixture of isomers) registered a Rating (dose 100 ppm) of 9. Turning to `O=C1OC(=Cc2cnccc2-c2cccc(Cl)c2)C(O)=C1c1ccc(OC(F)(F)F)cc1` (mixture of isomers), for the setting “dose 100 ppm”, the Rating was determined as 9. On the same count and under the same terms, in the case of `O=C1OC(=Cc2cnccc2-c2ccc(Cl)cc2)C(O)=C1c1ccc(OC(F)(F)F)cc1` (mixture of isomers) it was 9.

In turn, `O=C1OC(=Cc2cnccc2-c2ccc(OC(F)(F)F)cc2)C(O)=C1c1ccc(OC(F)(F)F)cc1` (mixture of isomers) had a Rating (dose 100 ppm) of 9.

With `O=C1OC(=Cc2ccc(-c3ccc(Cl)s3)cc2)C(O)=C1c1ccc(OC(F)(F)F)cc1` (mixture of isomers), the Rating (dose 100 ppm) is on record as 9. The same measure, in the same setting: to `O=C1OC(=Cc2cnccc2-c2ccc(Cl)s2)C(O)=C1c1ccc(OC(F)(F)F)cc1` (mixture of isomers) belongs 9. On the same count and under the same terms, in the case of `O=C1OC(=Cc2ccc(OCC3CC3)cc2)C(O)=C1c1ccc(OC(F)(F)F)cc1` (mixture of isomers) it was 0; in that of `CCCOc1ccc(C=C2OC(=O)C(c3ccc(OC(F)(F)F)cc3)=C2O)cc1` (mixture of isomers), 0.
